# Test results taken from PubChem BioAssay (NCI).
#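 Cells were grown in 96-well plates and exposed to each compound for 48 hours at five concentrations; endpoints were interpolated linearly between bracketing concentrations, or set to the highest concentration if not reached. At the GI50, growth is halved. Definition used: TGI = concentration required for complete inhibition of growth.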 Where a SMILES comes first, the peptide text is derived from it. [ ]: non-standard residue; d: D form.
# Key:
# Assay in all cases: growth of human tumour cells (NCI), 48 h
# ACHN renal = test system: ACHN renal
# OVCAR-4 ovarian = test system: OVCAR-4 ovarian
# LOX IMVI melanoma = test system: LOX IMVI melanoma
# SW-620 colon = test system: SW-620 colon
# RXF 393 renal = test system: RXF 393 renal
# TK-10 renal = test system: TK-10 renal
# SK-MEL-5 melanoma = test system: SK-MEL-5 melanoma
# A549 NSCLC = test system: A549 NSCLC
# RPMI-8226 leukemia = test system: RPMI-8226 leukemia
# HCT-15 colon = test system: HCT-15 colon
SMILES,GI50 (ACHN renal) [µM],TGI (ACHN renal) [µM],GI50 (OVCAR-4 ovarian) [µM],TGI (OVCAR-4 ovarian) [µM],GI50 (LOX IMVI melanoma) [µM],TGI (LOX IMVI melanoma) [µM],GI50 (SW-620 colon) [µM],TGI (SW-620 colon) [µM],GI50 (RXF 393 renal) [µM],TGI (RXF 393 renal) [µM],GI50 (TK-10 renal) [µM],TGI (TK-10 renal) [µM],GI50 (SK-MEL-5 melanoma) [µM],TGI (SK-MEL-5 melanoma) [µM],GI50 (A549 NSCLC) [µM],TGI (A549 NSCLC) [µM],GI50 (RPMI-8226 leukemia) [µM],TGI (RPMI-8226 leukemia) [µM],GI50 (HCT-15 colon) [µM],TGI (HCT-15 colon) [µM]
O=C(/C=C/c1ccc(Cl)cc1Cl)c1ccc(Cl)cc1Cl,22.1,47.9,26.6,88.5,15.8,30.1,9.22,47.3,16.7,36.3,28,> 73.2,16.7,36.4,19.9,47.2,4.22,17.8,14.4,31
O=C1C(OC(=O)c2ccccc2)=C(c2ccc(O)cc2)C(=O)C(OC(=O)c2ccccc2)=C1c1ccc(O)cc1,–,> 100,–,> 100,–,> 100,–,> 100,–,–,–,> 100,–,> 100,–,> 100,–,> 100,–,> 100
CC(=O)[O][Hg][c]1s[c]([Hg][O]C(C)=O)[c]([Hg][O]C(C)=O)[c]1[Hg][O]C(C)=O,19.3,> 100,12.7,87.7,–,–,6.51,–,13.1,28.6,–,–,1.24,3.12,55.8,> 100,7.54,> 100,4.51,30.4
COC(=O)C(C)Oc1ccc(O)cc1 (centres undefined),–,> 100,–,> 100,–,–,–,> 100,–,–,–,> 100,–,> 100,–,> 100,–,> 100,–,> 100
COc1ccc(F)cc1-c1ccnc2[nH]c(C3=CCN(C4CCC(CC(=O)O)CC4)CC3)cc12 (centres undefined),0.243,> 100,0.282,6.44,–,–,0.123,18.3,0.0413,0.216,0.344,> 100,0.121,0.389,0.424,> 100,0.235,0.786,0.249,> 100
O=C(N/C(=C\c1ccc(F)cc1)c1nc2ccccc2[nH]1)c1ccccc1,–,> 100,–,> 100,–,> 100,–,> 100,–,> 100,–,> 100,–,> 100,–,> 100,–,> 100,–,> 100
CCCC(=O)OC(OC(=O)CCC)c1ccc([N+](=O)[O-])o1,–,49.9,–,–,–,58.5,–,41.2,–,54,–,53.5,–,> 100,–,> 100,–,49.7,–,43.4
CN(C)CCOc1ccc2c(c1)C(=O)/C(=C\c1ncc([N+](=O)[O-])n1C)C2,0.298,2.37,0.529,3.53,0.331,1.85,0.474,4.22,0.316,1.25,1.57,4.8,0.179,0.402,0.37,5.14,2.14,14.4,0.311,7.39
C=CCO[C@H]1CC[C@@]2(C)C(CC[C@]3(C)C2CC=C2[C@@H]4[C@@H](C)C(C)CC[C@]4(C(=O)O)CCC23C)C1(C)C (some centres undefined),–,29.8,–,39.3,–,27.2,–,35.4,–,22.8,–,32.2,–,31.8,–,32.7,–,–,–,–
COC(=O)C(=O)C(C#N)c1c(Cl)cccc1Cl (centres undefined),–,> 100,–,> 100,–,> 100,–,> 100,–,> 100,–,> 100,–,> 100,–,> 100,–,> 100,–,> 100
CN(C)C(=S)/N=c1\ss/c(=N\S(=O)(=O)c2ccccc2)n1C,–,> 100,–,> 100,–,> 100,–,> 100,–,> 100,–,> 100,–,> 100,–,> 100,–,> 100,–,> 100
CSCC[C@H](NC(=O)[C@@H](N)CC(N)=O)C(=O)N[C@@H](Cc1c[nH]c2ccccc12)C(=O)N[C@@H](CCC(N)=O)C(=O)N[C@@H](CCC(=O)O)C(=O)N[C@H](C(=O)NCC(=O)N[C@@H](CCCCN)C(=O)N[C@H](C)C(=O)O)C(C)C (H-NMWQEVGK[dA]-OH),–,> 100,–,> 100,–,> 100,–,> 100,–,> 100,–,> 100,–,> 100,–,> 100,–,> 100,–,> 100
O=C1C(=Cc2ccc(F)cc2)C(=O)c2ccccc21,–,> 100,–,> 100,–,–,–,> 100,–,–,–,> 100,–,> 100,–,> 100,–,> 100,–,> 100
c1ccc(-c2cc3n4c(-c5ccccc5)nn(-c5ccccc5)c4cnc-3n2)cc1,> 50,> 50,31.3,> 50,> 50,> 50,> 50,> 50,4.16,33.8,19.3,> 50,> 50,> 50,> 50,> 50,> 50,> 50,> 50,> 50
C/C(=N\Nc1n[nH]c(=S)n1N)c1c(O)cc(C)oc1=O,–,> 100,–,> 100,–,> 100,–,> 100,–,–,–,> 100,–,–,–,> 100,–,–,–,> 100
C=C1C(=O)OC2(C)CCC1CC1OC1(C)CCC=C(C)CCC2O (centres undefined),–,> 100,–,> 100,–,> 100,–,> 100,–,–,–,> 100,–,> 100,–,> 100,–,> 100,–,> 100
CC(=O)/C(=C/N1CCN(C(=O)c2ccco2)C1=S)C(=O)c1ccccc1,6.9,17.6,20.1,37.4,8.91,20.4,6.12,17,–,–,10.6,28.6,8.12,15.4,10.8,26.9,3.79,18.2,4.71,18.9
